Structures can show the parent of a compound that is named as a salt.
System: HMOX1
Assay: HMOX1 Protein Assay (immunostaining of HO-1 in NHLF cells, GE InCell 1000)
Type: cell-based
Conditions: Homo sapiens, fold change above DMSO treated cells, 5 μM compound, 16 h
Outline: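 Fold induction of HO-1 over vehicle, normally at 5 μM compound (asterisk marks 3 μM), in 0.8% DMSO medium. Normal human lung fibroblasts were treated 16 h, then paraformaldehyde-fixed, anti-HO-1/Alexa 488 stained with Hoechst, and read by high-content imaging.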

`CC(C)n1c(Nc2nc3ccc(OC(F)(F)F)cc3s2)nc2cc(C(=O)O)ccc21` [Example 159, 1-Isopropyl-2-(6-trifluoromethoxy-benzothiazol-2-ylamino)-1H-benzoimidazole-5-carboxylic acid] gave a fold induction at 5 µM of 26.7.

`CNC(=O)c1ccc2c(c1)nc(Nc1nc3ccc(OC(F)(F)F)cc3s1)n2C(C)C` [Example 160, 1-Isopropyl-2-(6-trifluoromethoxy-benzothiazol-2-ylamino)-1H-benzoimidazole-5-carboxylic acid methylamide] showed a fold induction at 5 µM of 22.9.

In the case of `CCNC(=O)c1ccc2c(c1)nc(Nc1nc3ccc(OC(F)(F)F)cc3s1)n2C(C)C` [Example 161, 1-Isopropyl-2-(6-trifluoromethoxy-benzothiazol-2-ylamino)-1H-benzoimidazole-5-carboxylic acid ethylamide], the fold induction at 5 µM is reported as 19.1.

`CC(C)Cn1c(Nc2nc3ccc(OC(F)(F)F)cc3s2)nc2cc(C(=O)O)ccc21` [Example 163, 1-Isobutyl-2-(6-trifluoromethoxy-benzothiazol-2-ylamino)-1H-benzoimidazole-5-carboxylic acid] was tested, and the fold induction at 5 µM was 26.3.

Work on `CNC(=O)c1ccc2c(c1)nc(Nc1nc3ccc(OC(F)(F)F)cc3s1)n2CC(C)C` [Example 164, 1-Isobutyl-2-(6-trifluoromethoxy-benzothiazol-2-ylamino)-1H-benzoimidazole-5-carboxylic acid methylamide] yielded a fold induction at 5 µM of 20.5.

`CCNC(=O)c1ccc2c(c1)nc(Nc1nc3ccc(OC(F)(F)F)cc3s1)n2CC(C)C` [Example 165, 1-Isobutyl-2-(6-trifluoromethoxy-benzothiazol-2-ylamino)-1H-benzoimidazole-5-carboxylic acid ethylamide] was tested, and the fold induction at 5 µM was 17.9.

For `COCCn1c(Nc2nc3ccc(OC(F)(F)F)cc3s2)nc2cc(C(=O)O)ccc21` [Example 166, 1-(2-Methoxy-ethyl)-2-(6-trifluoromethoxy-benzothiazol-2-ylamino)-1H-benzoimidazole-5-carboxylic acid], the fold induction at 5 µM was 22.4.

`CNC(=O)c1ccc2c(c1)nc(Nc1nc3ccc(OC(F)(F)F)cc3s1)n2CCOC` [Example 167, 1-(2-Methoxy-ethyl)-2-(6-trifluoromethoxy-benzothiazol-2-ylamino)-1H-benzoimidazole-5-carboxylic acid methylamide] showed a fold induction at 5 µM of 24.2.

Molecule `COCCNC(=O)c1ccc2c(c1)nc(Nc1nc3ccc(OC(F)(F)F)cc3s1)n2CCOC` [Example 168, 1-(2-Methoxy-ethyl)-2-(6-trifluoromethoxy-benzothiazol-2-ylamino)-1H-benzoimidazole-5-carboxylic acid (2-methoxy-ethyl)-amide] has a fold induction at 5 µM of 21.9.

Work on `CCOCCNC(=O)c1ccc2c(c1)nc(Nc1nc3ccc(OC(F)(F)F)cc3s1)n2CCOC` [Example 169, 1-(2-Methoxy-ethyl)-2-(6-trifluoromethoxy-benzothiazol-2-ylamino)-1H-benzoimidazole-5-carboxylic acid (2-ethoxy-ethyl)-amide] yielded a fold induction at 5 µM of 24.4.

In the case of `CNC(=O)c1ccc2c(c1)nc(Nc1nc3ccc(OC(F)(F)F)cc3s1)n2CCF` [Example 170, 1-(2-Fluoro-ethyl)-2-(6-trifluoromethoxy-benzothiazol-2-ylamino)-1H-benzoimidazole-5-carboxylic acid methylamide], the fold induction at 5 µM is reported as 23.

Work on `COCCNC(=O)c1ccc2c(c1)nc(Nc1nc3ccc(OC(F)(F)F)cc3s1)n2CCF` [Example 171, 1-(2-Fluoro-ethyl)-2-(6-trifluoromethoxy-benzothiazol-2-ylamino)-1H-benzoimidazole-5-carboxylic acid (2-methoxy-ethyl)-amide] yielded a fold induction at 5 µM of 22.8.

In the case of `CCOCCNC(=O)c1ccc2c(c1)nc(Nc1nc3ccc(OC(F)(F)F)cc3s1)n2CCF` [Example 172, 1-(2-Fluoro-ethyl)-2-(6-trifluoromethoxy-benzothiazol-2-ylamino)-1H-benzoimidazole-5-carboxylic acid (2-ethoxy-ethyl)-amide], the fold induction at 5 µM is reported as 21.4.

`CNC(=O)c1ccc2c(c1)nc(Nc1nc3ccc(OC(F)(F)F)cc3s1)n2CCN` [Example 173, 1-(2-Amino-ethyl)-2-(6-trifluoromethoxy-benzothiazol-2-ylamino)-1H-benzoimidazole-5-carboxylic acid methylamide hydrochloride] was tested, and the fold induction at 5 µM was 21.4.

Molecule `CCn1c(Nc2nc3ccc(Cl)cc3s2)nc2cc(C(=O)NC)ccc21` [Example 174, 2-(6-Chloro-benzothiazol-2-ylamino)-1-ethyl-1H-benzoimidazole-5-carboxylic acid methylamide] has a fold induction at 5 µM of 26.2.

Molecule `CCNC(=O)c1ccc2c(c1)nc(Nc1nc3ccc(Cl)cc3s1)n2CC` [Example 175, 2-(6-Chloro-benzothiazol-2-ylamino)-1-ethyl-1H-benzoimidazole-5-carboxylic acid ethylamide] has a fold induction at 5 µM of 28.7.

Molecule `CCn1c(Nc2nc3ccc(Cl)cc3s2)nc2cc(C(=O)NCCF)ccc21` [Example 176, 2-(6-Chloro-benzothiazol-2-ylamino)-1-ethyl-1H-benzoimidazole-5-carboxylic acid (2-fluoro-ethyl)-amide] has a fold induction at 5 µM of 25.8.

With `CCn1c(Nc2nc3ccc(Cl)cc3s2)nc2cc(C(=O)NCCOC)ccc21` [Example 177, 2-(6-Chloro-benzothiazol-2-ylamino)-1-ethyl-1H-benzoimidazole-5-carboxylic acid (2-methoxy-ethyl)-amide] the fold induction at 5 µM was 30.3.

Work on `CCn1c(Nc2nc3ccc(Cl)cc3s2)nc2cc(C(=O)NCC(C)(C)OC)ccc21` [Example 178, 2-(6-Chloro-benzothiazol-2-ylamino)-1-ethyl-1H-benzoimidazole-5-carboxylic acid (2-methoxy-2-methyl-propyl)-amide] yielded a fold induction at 5 µM of 25.7.

For `CCOCCNC(=O)c1ccc2c(c1)nc(Nc1nc3ccc(Cl)cc3s1)n2CC` [Example 179, 2-(6-Chloro-benzothiazol-2-ylamino)-1-ethyl-1H-benzoimidazole-5-carboxylic acid (2-ethoxy-ethyl)-amide], the fold induction at 5 µM was 24.4.

For `CCn1c(Nc2nc3ccc(C(F)(F)F)cc3s2)nc2cc(C(=O)NC)ccc21` [Example 180, 1-Ethyl-2-(6-trifluoromethyl-benzothiazol-2-ylamino)-1H-benzoimidazole-5-carboxylic acid methylamide], the fold induction at 5 µM was 12.4.

Work on `CCNC(=O)c1ccc2c(c1)nc(Nc1nc3ccc(C(F)(F)F)cc3s1)n2CC` [Example 181, 1-Ethyl-2-(6-trifluoromethyl-benzothiazol-2-ylamino)-1H-benzoimidazole-5-carboxylic acid ethylamide] yielded a fold induction at 5 µM of 23.

In the case of `CCn1c(Nc2nc3ccc(C(F)(F)F)cc3s2)nc2cc(C(=O)NCCOC)ccc21` [Example 182, 1-Ethyl-2-(6-trifluoromethyl-benzothiazol-2-ylamino)-1H-benzoimidazole-5-carboxylic acid (2-methoxy-ethyl)-amide], the fold induction at 5 µM is reported as 13.

`CCn1c(Nc2nc3ccc(C(F)(F)F)cc3s2)nc2cc(C(=O)NCC(C)(C)OC)ccc21` [Example 184, 1-Ethyl-2-(6-trifluoromethyl-benzothiazol-2-ylamino)-1H-benzoimidazole-5-carboxylic acid (2-methoxy-2-methyl-propyl)-amide] showed a fold induction at 5 µM of 9.5.

For `CCn1c(Nc2nc3ccc(C(F)(F)F)cc3s2)nc2cc(C(=O)NCCSC)ccc21` [Example 185, 1-Ethyl-2-(6-trifluoromethyl-benzothiazol-2-ylamino)-1H-benzoimidazole-5-carboxylic acid (2-methylsulfanyl-ethyl)-amide], the fold induction at 5 µM was 11.2.

— patent US8759535B2, “Substituted fused imidazole derivatives, pharmaceutical compositions, and methods of use thereof” (High Point Pharmaceuticals, LLC, priority 2010, dated 2014)
